Values joined by “and” are separate entries in the source; they are usually repeats but may differ in a detail not shown here. Equal entries are not always repeated. Where two headings read alike, the source gives them in different places.
Assay: Pharmacokinetics and distribution in brain tissue in rats
Assay type: in vivo, Sprague Dawley rats
Settings: SD rats; for Vd: read-out: VdSS
Experimental: After K43 was administered to Sprague Dawley rats via intravenous injection or oral administration, blood sample and brain tissue were collected at different time points. the concentration of K43 in plasma and brain of rats after administration of the compounds was analyzed by LC-MS/MS and used to calculate the pharmacokinetic parameters, evaluating the oral bioavailability and distribution in brain tissue of K43 in rats.
24 SD rats, which were provided by SHANGHAI SLAC LABORATORY ANIMAL CO. LTD., were used to perform the experiments according to the following table.
About 0.15 mL of blood was collected through orbit per animal every time, and EDTAK2 was used for anticoagulation. For IV group, the time points for collection were before administration (0 hr), and 5 min, 15 min, 30 min, 1 h, 2 h, 4 h, 6 h, 8 h and 24 h after administration; and for PO group, the time points for collection were before administration (0 hr), 15 min, 30 min, 1 h, 2 h, 4 h, 6 h, 8 h and 24 h after administration. The time points for collecting brain tissue were 0.25, 0.5, 1, 2, 4, 6 and 24 h. The collected blood samples were placed on icen, and plasma was centrifuged within 1 h (centrifugal condition: 12000 rpm, 2 min, 4° C.). The collected plasma was cryopreserved in a −20° C. refrigerator before analysis.
Pharmacokinetic parameters after administration were calculated according to the obtained data of plasma concentration using the non-compartmental model of WinNonlin V6.3.

[1] = IV 0.500 mg/kg, plasma, individual animals IV-1 to IV-3, 0.5 mg/kg
[2] = PO 5.00 mg/kg, plasma, individual animals PO-4 to PO-6, 5 mg/kg
[3] = Sprague-Dawley, rat, plasma, iv, 0.5 mg/kg, IV 0.500 mg/kg, individual animals IV-1 to IV-3
[4] = Sprague-Dawley, rat, plasma, iv, 0.5 mg/kg, IV 0.500 mg/kg, mean

## C#CCN(Cc1ccc(F)cc1)c1cc(C)c(NC(=O)OC)c(C)c1 [Compound K43, methyl 4-(N-parafluorobenzyl-N-propargyl-amino)-2,6-dimethylphenylaminoformate]
[1]
  AUC0-t: 232 ng·h/mL and 239 ng·h/mL
  AUC(0-inf): 236 ng·h/mL and 242 ng·h/mL
  AUMC0-inf: 304 h · h · ng · mL^−1 and 295 h · h · ng · mL^−1 and 293 h · h · ng · mL^−1
  AUMC0-t: 287 h · h · ng · mL^−1 and 258 h · h · ng · mL^−1 and 270 h · h · ng · mL^−1
  CL: 35.3 mL/min/kg and 34.5 mL/min/kg
  Kcl: 0.552 h⁻¹ and 0.427 h⁻¹ and 0.516 h⁻¹
  MRTIV: 1.38 h and 1.25 h and 1.21 h
  VdSS: 2.65 L/kg and 2.51 L/kg
  t1/2: 1.62 h and 1.34 h
IV 0.500 mg/kg, plasma, mean
  AUMC0-inf: 297 h · h · ng · mL^−1
  AUMC0-t: 271 h · h · ng · mL^−1
  Kcl: 0.498 h⁻¹
  MRTIV: 1.28 h
PO 5.00 mg/kg, brain tissue
  AUC(0-inf): 4314 ng·h/g
  AUMC0-inf: 85535 h · h · ng · g^−1
  AUMC0-t: 25306 h · h · ng · g^−1
  Kel: 0.0542 h⁻¹
  MRTPO: 19.8 h
PO 5.00 mg/kg, brain tissue (AUC0→24 hr)
  AUC0-t: 2895 ng·h/g
PO 5.00 mg/kg, individual animals PO-4 to PO-6, 5 mg/kg
  F: 20.3% and 59.9% and 16.5%
[2]
  AUC0-t: 467 ng·h/mL and 1379 ng·h/mL and 379 ng·h/mL
  AUC(0-inf): 471 ng·h/mL and 1605 ng·h/mL and 407 ng·h/mL
  AUMC0-inf: 2497 h · h · ng · mL^−1 and 18103 h · h · ng · mL^−1 and 1256 h · h · ng · mL^−1
  AUMC0-t: 2360 h · h · ng · mL^−1 and 10030 h · h · ng · mL^−1 and 957 h · h · ng · mL^−1
  Cmax: 62.7 ng/mL and 138 ng/mL and 107 ng/mL
  Kcl: 0.186 h⁻¹ and 0.0857 h⁻¹ and 0.371 h⁻¹
  MRTPO: 5.30 h and 11.3 h and 3.09 h
  Tmax: 4.00 h and 1.00 h
  t1/2: 3.74 h and 8.09 h and 1.87 h
PO 5.00 mg/kg, plasma, mean
  AUMC0-inf: 7285 h · h · ng · mL^−1
  AUMC0-t: 4449 h · h · ng · mL^−1
  Kcl: 0.214 h⁻¹
  MRTPO: 6.55 h
Sprague-Dawley, rat, brain, po, 5 mg/kg, PO 5.00 mg/kg, brain tissue
  half-life: 12.8 h
Sprague-Dawley, rat, brain, po, 5 mg/kg, PO 5.00 mg/kg, brain tissue, read-out: Cmax
  Cmax: 366 ng/g
Sprague-Dawley, rat, brain, po, 5 mg/kg, PO 5.00 mg/kg, brain tissue, read-out: tmax
  Tmax: 2 h
[3]
  clearance: 37.8 mL/min/kg
  half-life: 1.26 h
[4]
  clearance: 35.8 ± 1.7 mL/min/kg
  half-life: 1.41 ± 0.191 h
Sprague-Dawley, rat, plasma, iv, 0.5 mg/kg, IV 0.500 mg/kg, plasma, individual animals IV-1 to IV-3, read-out: AUC0-inf
  AUC(0-inf): 221 ng·h/mL
Sprague-Dawley, rat, plasma, iv, 0.5 mg/kg, IV 0.500 mg/kg, plasma, individual animals IV-1 to IV-3, read-out: AUC0-t
  AUC0-t: 219 ng·h/mL
Sprague-Dawley, rat, plasma, iv, 0.5 mg/kg, IV 0.500 mg/kg, plasma, individual animals IV-1 to IV-3
  Vd: 3.13 L/kg
Sprague-Dawley, rat, plasma, iv, 0.5 mg/kg, IV 0.500 mg/kg, plasma, mean, read-out: AUC0-inf
  AUC(0-inf): 233 ng·h/mL
Sprague-Dawley, rat, plasma, iv, 0.5 mg/kg, IV 0.500 mg/kg, plasma, mean, read-out: AUC0-t
  AUC0-t: 230 ng·h/mL
Sprague-Dawley, rat, plasma, iv, 0.5 mg/kg, IV 0.500 mg/kg, plasma, mean
  Vd: 2.76 ± 0.324 L/kg
Sprague-Dawley, rat, plasma, po, 5 mg/kg, PO 5.00 mg/kg, mean
  half-life: 4.56 h
Sprague-Dawley, rat, plasma, po, 5 mg/kg, PO 5.00 mg/kg, plasma, mean (AUC0→24 hr), read-out: AUC0-t
  AUC0-t: 742 ± 554 ng·h/mL
Sprague-Dawley, rat, plasma, po, 5 mg/kg, PO 5.00 mg/kg, plasma, mean, read-out: AUC0-inf
  AUC(0-inf): 828 ng·h/mL
Sprague-Dawley, rat, plasma, po, 5 mg/kg, PO 5.00 mg/kg, plasma, mean, read-out: Cmax
  Cmax: 103 ± 37.8 ng/mL
Sprague-Dawley, rat, plasma, po, 5 mg/kg, PO 5.00 mg/kg, plasma, mean, read-out: tmax
  Tmax: 2.33 ± 1.53 h
Sprague-Dawley, rat, plasma, PO 5.00 mg/kg, mean, read-out: F (oral bioavailability)
  bioavailability: 32.2 ± 24.1%

— US10316008B2, “KCNQ potassium channel agonist, and preparation method therefor and use thereof” (SHANGHAI INSTITUTE OF MATERIA MEDICA, CHINESE ACADEMY OF …, priority 2014, dated 2019)
